Test results: patent US20060014835A1, “Therapeutic agent for chronic obstructive pulmonary disease” (priority 2002, published 2006)

Test system: rat
Assay: single oral administration toxicity to rat (minimum lethal dose)
Format: in vivo
Experimental: The toxicity of the compounds of the present invention is very low and therefore, the compounds may be considered safe for pharmaceutical use. For example, a minimum of lethal dose of N-hydroxy-5-hydroxy-2(S)-methyl-4(S) (4-phenoxybenzoyl)aminopentanamide and N-hydroxy-5-ethoxymethyloxy-2(S)-methyl-4(S)-(4-phenoxybenzoyl)aminopentanamide by single oral administration to rat was 2000 mg/kg.

With `C[C@@H](C[C@@H](CO)NC(=O)c1ccc(Oc2ccccc2)cc1)C(=O)NO` [Compound (1), N-hydroxy-5-hydroxy-2 (S)-methyl-4(S)-(4-phenoxybenzoyl) aminopentanamide] the “minimum of lethal dose” value was 2000 mg/kg.
`CCOCOC[C@H](C[C@H](C)C(=O)NO)NC(=O)c1ccc(Oc2ccccc2)cc1` [Compound (2), N-hydroxy 5-ethoxymethyloxy-2(S)-methyl-4(S)-(4-phenoxybenzoyl) aminopentanamide] was tested, and the “minimum of lethal dose” value was 2000 mg/kg.
